Laboratory results reported in patent US11945786B2, “Compounds, devices, and uses thereof” (SIGILON THERAPEUTICS, INC., priority 2016, dated 2024).

Tested on: Macrophage cell lines
Assay: In vitro macrophage adhesion assay (Example 8)
Assay type: cell-based
Conditions: compound conjugated to NHS-activated 96 well plate; 50000 cells per well, 37 degrees Celsius, one hour; averaged across eight wells; normalized PEG750=0, Fibronectin=100
Experimental: Exemplary compounds of the invention were prepared at a concentration of 0.1M in a 0.1M bicarbonate buffer (pH 8.2) containing 25% v/v DMSO. Control solutions of 0.1M PEG750-amine and 0.01% fibronectin were prepared in 0.1M bicarbonate buffer (pH 8.2).
Each small molecule amine solution (100 μL) was pipetted into eight wells of an NHS-activated 96 well plate and incubated 2 hours at room temperature. Each plate consisted of two lanes spiked with the two control solutions and ten lanes spiked with test molecule solutions. The test wells were rinsed once with 200 μL 0.1M bicarbonate buffer (pH 8.2) containing 25% v/v DMSO followed by three washes with 200 μL Hyclone™ water. The control wells were rinsed with 0.1M bicarbonate buffer (pH 8.2) followed by three 200 μL Hyclone™ water washes. Plates were dried at room temperature in a sterile hood and stored at 4-8° C. until use.
Macrophage cell lines were plated onto 96 well plates, 50000 cells per well, and incubated at 37 degrees Celsius for one hour. Plates were then placed at a 45-degree angle and washed by applying fluid shear 5 times. Non-adherent and adherent cells were then separated and treated with a Cell titer-glo kit to quantify the number of live cells. Live cells were detected using luminescence-based plate reader measurements. The resulting cell adhesion values for each small molecule amine was averaged across the eight wells and standard deviations calculated. The average cell adhesion value for each small molecule was normalized relative to the averages for the two controls on each plate: PEG750=0, Fibronectin (FN)=100. Small molecule normalized value=(SM-PEG750)/(FN-PEG750). Results are expressed as a percentage of cells adhered on the plates. % Percent adherent cells=(Luminescence of adhered cells)/(Luminescence of adhered+non-adhered cells). In this table, “A” represents a cell adhesion value of <0% to about 10%; “B” represents a cell adhesion value of 10% to about 50%; and “C” represents a cell adhesion value of 50% to 100%.

Row | Compound | cell adhesion value (percentage of cells adhered on the plates)
1 | NCCOCCOCCOCCn1cc(CN2CCS(=O)(=O)CC2)nn1 [Compound 3037, 4-((1-(2-(2-(2-(2-aminoethoxy)ethoxy)ethoxy)ethyl)-1H-1,2,3-triazol-4-yl)methyl)thiomorpholine 1,1-dioxide] | A (a cell adhesion value of <0% to about 10%)
2 | Fibronectin [reference compound] | C (a cell adhesion value of 50% to 100%)
3 | C=CC(=O)NCc1ccc(-n2cc(COC3CCCCO3)nn2)cc1 (stereo not drawn) [Compound 3040, N-(4-(4-(((tetrahydro-2H-pyran-2-yl)oxy)methyl)-1H-1,2,3-triazol-1-yl)benzyl)acrylamide] | C (a cell adhesion value of 50% to 100%)
